Laboratory results taken from the NIST ThermoML archive (doi:10.1021/je049788h).
Numbers after ± are expanded uncertainties.

Conditions: 101.3 kPa, Liquid; for viscosity: Capillary tube (Ostwald / Ubbelohde) method; for mass density: Vibrating tube method

COCCOCCOCCOCCOC [2,5,8,11,14-pentaoxapentadecane]
Conditions | mass density [kg/m3] | viscosity [mPa·s]
298.15 K | 1006.65 ± 0.51 | 3.38 ± 0.04
313.15 K | 993.28 ± 0.51 | 2.42 ± 0.03
323.15 K | 984.05 ± 0.5 | 2.004 ± 0.026
333.15 K | 974.8 ± 0.5 | 1.69 ± 0.02
343.15 K | 965.55 ± 0.49 | 1.42 ± 0.02
